Experimental data published in patent US20250270208A1, “BICYCLIC HETEROCYCLES AS MRGPRX2 ANTAGONISTS” (Incyte Corporation, priority 2023, published 2025).

Legend:
Assay type in all cases: cell-based
[1] = molecular target: T1, MRGPRX2 (Homo sapiens, UniProt Q96LB1); assay: MRGPRX2 β-Arrestin assay; parameters: host or cells: PathHunter CHO-K1; settings: PathHunter CHO-K1 MRGPRX2 β-Arrestin cell line; agonist Cortistatin 14 0.25 μM
T1 sequence (Q96LB1 1-330): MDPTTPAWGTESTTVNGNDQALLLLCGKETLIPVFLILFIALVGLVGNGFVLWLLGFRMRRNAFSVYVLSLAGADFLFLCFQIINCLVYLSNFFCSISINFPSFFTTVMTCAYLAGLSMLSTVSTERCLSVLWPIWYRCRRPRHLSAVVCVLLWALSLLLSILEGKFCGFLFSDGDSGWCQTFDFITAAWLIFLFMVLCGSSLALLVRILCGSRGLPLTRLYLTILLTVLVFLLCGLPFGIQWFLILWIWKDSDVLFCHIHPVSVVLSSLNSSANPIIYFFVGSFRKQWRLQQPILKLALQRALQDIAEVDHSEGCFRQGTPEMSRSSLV
Source text: This assay measures compound inhibition of β-Arrestin recruitment, which is part of the G protein-independent pathway that results from the ligand-activated GPCR phosphorylation by specific GPCR kinases. The PathHunter CHO-K1 MRPGRX2 β-Arrestin Cell line stably expressing ProLink tagged MRGPRX2 and Enzyme Acceptor Tagged β-Arrestin was purchased from Eurofins DiscoverX, (Fremont, CA).
The cells were maintained in culture medium from the Europhins DiscoverX Cell Culture Kit-107 which includes FBS, hygromycin B and G418. For the assay, the cells were harvested and were resuspended with Cell Plating Reagent 2 (Eurofins DiscoverX). Cells were added 10000 cells in 25 μL/well to a 384-well black cell culture plate (Greiner VWR, Radnor, PA) which contained 125 nL/well of compound at a selected serially diluted concentration range or DMSO. The plate was incubated at 37° C. with 5% CO2 for 1 h. 2 μL/well of agonist Cortistatin 14 was diluted in Protein Dilution Buffer, (Eurofins DiscoverX) for a final concentration of 0.25 μM, was added and the plate was incubated at 37° C. with 5% CO2 for 90 min. 14 μL/well of Detection Reagent Mix (PathHunter Detection Kit, Eurofins DiscoverX) was added to the plates and further incubated for 1 h in the dark. Plates were read on the PHERAstar microplate reader (BMG Labtech Cary, NC) measuring luminescence 0.1 to 1 s per well. Data was normalized using DMSO only wells and wells with high concentration of reference antagonist as controls. Compound IC50 curves were globally fitted with 3- or 4-parameter Hill equation in a Genedata Screener (Genedata Basel, Switzerland).

[2] = molecular target: T1, MRGPRX2; assay: MRGPRX2 FLIPR calcium mobilization assay; parameters: host or cells: CHO-K1; settings: CHO-K1 cells stably expressing human MRGPRX2; Ca2+ release; agonist Cortistatin-14 at EC80
Protocol: Chinese hamster ovary (CHO-K1) cells stably expressing human MRGPRX2 were purchased from Genescript (Piscataway, NJ). The cells were maintained in culture medium (Ham's F-12K) containing 10% (v/v) FBS, 200 μg/mL Zeocin, 100 units/mL penicillin G and 100 μg/mL streptomycin (Life Technologies, Carlsbad, CA). For the assay, the cells were harvested and resuspended with culture medium without Zeocin before plating at 8000 cells per well in 20 μL in 384-well black clear bottom cell culture plates (VWR, Radnor, PA). After 24 hour culture at 37° C. and 5% CO2, the cells were loaded with 20 μL/well of calcium dye (FLIPR Calcium 6 Assay Kit, Molecular Devices, San Jose, CA) diluted in loading buffer (1× Hank's Balanced Salt Solution (HBSS), 5 mM probenecid, 20 mM 4-(2-hydroxyethyl)-1-piperazineethanesulfonic acid (HEPES), pH 7.4, VWR, Radnor, PA) followed with 45 min incubation at 37° C. and 40 min. at r.t. in the dark. Cells were then treated with the addition of 10 uL/well test compounds with a range of increasing concentrations diluted in the assay buffer (1×HBSS, 20 mM HEPES, pH 7.4, VWR, Radnor, PA) with FLIPR Penta (Molecular Devices. San Jose, CA) and incubated for 30 min. at r.t. Ca^2+ release was measured with FLIPR Penta with 10 s basal fluorescence measurement, then 12.5 μL of 5× agonist Cortistatin-14 (Tocris, Minneapolis, MN) at final concentration corresponding to the EC80 were added followed with continued fluorescence signal monitoring for an additional 110 s. The base line adjusted (median of first 10 s base line) max value of the Relative Fluorescence Unit (RFU) was plotted against compound concentrations. Wells with no compound were served as the positive controls, and wells with high concentration of reference antagonist were used as negative controls. IC50 curves were globally fitted with 3- or 4-parameter Hill equation in a Genedata Screener (Genedata Basel, Switzerland).

[3] = molecular target: T1, MRGPRX2; assay: MRGPRX2 IP1 HTRF assay; parameters: host or cells: CHO-K1; settings: CHO-K1 cells stably expressing human MRGPRX2; IP1 accumulation; agonist Cortistatin 14 1 μM
Protocol: This assay measures compound inhibition of myo-Inositol 1 phosphate (IP1) accumulation in CHO-K1 cells. Chinese hamster ovary (CHO-K1) cells stably expressing human MRGPRX2 were purchased from GenScript (Piscataway, NJ).
For the HTRF IP1 determination, an IP-One GqKit (Perkin Elmer Cisbio, Waltham, MA), which includes all reagents and buffers in this protocol, was used. The cells were maintained in culture medium (Ham's F-12K) containing 10% (v/v) FBS, and 200 μg/mL Zeocin. For the assay, the cells were harvested and resuspended in culture medium with 2% FBS and without Zeocin, then were passed through a 40 μm filter. Cells were added at 20000 cells in a 5 μL/well to a 384-well white small volume cell culture plate (Greiner VWR, Radnor, PA) which contained 50 nL/well of test compound serially diluted at a selected concentration range in DMSO. 5 μL/well of prepared 2× Stimulation Buffer 2 was then added to plates and was incubated at 37° C. with 5% CO2 for 1 h. 5 μL/well of agonist Cortistatin 14 (Bio-TechneR&D Systems, Minneapolis, MN) in 1× Stimulation Buffer 2, for a 1 μM final concentration, was then added to plates and incubated at 37° C. with 5% CO2 for 1 h. 6 μL/well of 1:20 diluted Detection Reagent Mix (d2 and Cryptate) was added to the plates and incubated for 1 h in the dark. Plates were read on the PHERAstar microplate reader (BMG Labtech Cary, NC) to determine the HTRF ratio of the acceptor and donor emission signals. The IP1 concentrations were calculated from a standard curve following the IP-One GQ kit instructions. Wells with DMSO only and wells with high concentration of reference antagonist were used as controls for normalization. Compound IC50 curves were globally fitted with 3- or 4-parameter Hill equation in a Genedata Screener (Genedata Basel, Switzerland).

Row | Compound | IC50 [1] [nM] | IC50 [2] [nM] | IC50 [3] [nM]
1 | Cn1cnc2ccnc(N[C@@H]3CCC[C@H](Nc4cc(C(F)(F)F)nc5ccc(Cl)cc45)C3)c21 [Example 4, (1S,3R)-N^1-(6-Chloro-2-(trifluoromethyl)quinolin-4-yl)-N^3-(3-methyl-3H-imidazo[4,5-c]pyridin-4-yl)cyclohexane-1,3-diamine] | 0.1 to 100 | 0.1 to 100 | 0.1 to 100
2 | FC(F)(F)c1cc(N[C@H]2CCC[C@@H](Nc3nccn4cncc34)C2)c2cc(Cl)ccc2n1 [Example 9, (1S,3R)-N^1-(6-Chloro-2-(trifluoromethyl)quinolin-4-yl)-N^3-(imidazo[1,5-a]pyrazin-8-yl)cyclohexane-1,3-diamine] | 0.1 to 100 | 0.1 to 100 | 0.1 to 100
3 | Cc1cc2c(N[C@@H]3CCC[C@H](Nc4cc(C(F)(F)F)nc5ccc(Cl)cc45)C3)nccn2n1 [Example 11, (1S,3R)-N^1-(6-Chloro-2-(trifluoromethyl)quinolin-4-yl)-N^3-(2-methylpyrazolo[1,5-a]pyrazin-4-yl)cyclohexane-1,3-diamine] | 0.1 to 100 | 0.1 to 100 | 0.1 to 100
4 | FC(F)(F)c1cc(N[C@H]2CC[C@@H](Nc3nccc4ncccc34)CC2)c2cc(Cl)ccc2n1 [Example 13, (1s,4s)-N^1-(6-Chloro-2-(trifluoromethyl)quinolin-4-yl)-N^4-(1,6-naphthyridin-5-yl)cyclohexane-1,4-diamine] | 0.1 to 100 | 0.1 to 100 | 0.1 to 100
5 | Cn1cnc2ccnc(N[C@@H]3CCC[C@H](Nc4cc(C(F)(F)F)nc5ccccc45)C3)c21 [Example 15, (1R,3S)-N^1-(3-Methyl-3H-imidazo[4,5-c]pyridin-4-yl)-N^3-(2-(trifluoromethyl)quinolin-4-yl)cyclohexane-1,3-diamine] | 0.1 to 100 | 0.1 to 100 | 100 to 1000
6 | Cn1cnc2ccnc(N[C@@H]3CCC[C@H](Nc4cc(C(F)(F)F)nc5ccc(Br)cc45)C3)c21 [Example 16, (1S,3R)-N^1-(6-Bromo-2-(trifluoromethyl)quinolin-4-yl)-N^3-(3-methyl-3H-imidazo[4,5-c]pyridin-4-yl)cyclohexane-1,3-diamine] | 0.1 to 100 | 0.1 to 100 | 0.1 to 100
7 | Cc1ccc2nc(C(F)(F)F)cc(N[C@H]3CCC[C@@H](Nc4nccc5ncn(C)c45)C3)c2c1 [Example 17, (1S,3R)-N^1-(6-Methyl-2-(trifluoromethyl)quinolin-4-yl)-N^3-(3-methyl-3H-imidazo[4,5-c]pyridin-4-yl)cyclohexane-1,3-diamine] | 0.1 to 100 | 0.1 to 100 | 0.1 to 100

Next, values leading:

Row | IC50 [1] [nM] | IC50 [2] [nM] | IC50 [3] [nM] | Compound
8 | 0.1 to 100 | 0.1 to 100 | 100 to 1000 | Cn1cc2c(N[C@@H]3CCC[C@H](Nc4cc(C(F)(F)F)nc5ccc(Cl)cc45)C3)nccc2n1 [Example 1, (1S,3R)-N^1-(6-Chloro-2-(trifluoromethyl)quinolin-4-yl)-N^3-(2-methyl-2H-pyrazolo[4,3-c]pyridin-4-yl)cyclohexane-1,3-diamine]
9 | 0.1 to 100 | 0.1 to 100 | 0.1 to 100 | FC(F)(F)c1cc(N[C@H]2CCC[C@@H](Nc3nccc4ncccc34)C2)c2cc(Cl)ccc2n1 [Example 5, (1S,3R)-N^1-(6-Chloro-2-(trifluoromethyl)quinolin-4-yl)-N^3-(1,6-naphthyridin-5-yl)cyclohexane-1,3-diamine]
10 | 0.1 to 100 | 0.1 to 100 | 0.1 to 100 | Cc1ncc2c(N[C@@H]3CCC[C@H](Nc4cc(C(F)(F)F)nc5ccc(Cl)cc45)C3)nccn12 [Example 10, (1S,3R)-N^1-(6-Chloro-2-(trifluoromethyl)quinolin-4-yl)-N^3-(3-methylimidazo[1,5-a]pyrazin-8-yl)cyclohexane-1,3-diamine]
11 | 0.1 to 100 | 0.1 to 100 | 0.1 to 100 | Cn1cnc2ccnc(N[C@@H]3CCC[C@H](Nc4cc(C(F)(F)F)nc5ccc(F)cc45)C3)c21 [Example 14, (1S,3R)-N^1-(6-Fluoro-2-(trifluoromethyl)quinolin-4-yl)-N^3-(3-methyl-3H-imidazo[4,5-c]pyridin-4-yl)cyclohexane-1,3-diamine]
12 | 0.1 to 100 |  | 0.1 to 100 | FC(F)(F)c1cc(N[C@H]2CCC[C@@H](Nc3nccc4nccn34)C2)c2cc(Cl)ccc2n1 [Example 18, (1S,3R)-N^1-(6-Chloro-2-(trifluoromethyl)quinolin-4-yl)-N^3-(imidazo[1,2-c]pyrimidin-5-yl)cyclohexane-1,3-diamine]
13 | 0.1 to 100 | 0.1 to 100 | 0.1 to 100 | Cn1ncc2c(N[C@@H]3CCC[C@H](Nc4cc(C(F)(F)F)nc5ccc(Cl)cc45)C3)nccc21 [Example 19, (1S,3R)-N^1-(6-Chloro-2-(trifluoromethyl)quinolin-4-yl)-N^3-(1-methyl-1H-pyrazolo[4,3-c]pyridin-4-yl)cyclohexane-1,3-diamine]
14 | 0.1 to 100 | 0.1 to 100 | 0.1 to 100 | Cn1c(C#N)cnc1N[C@@H]1CCC[C@H](Nc2cc(C(F)(F)F)nc3ccc(Cl)cc23)C1 [Example 20, 2-(((1R,3S)-3-((6-Chloro-2-(trifluoromethyl)quinolin-4-yl)amino)cyclohexyl)amino)-1-methyl-1H-imidazole-5-carbonitrile]
15 |  | 0.1 to 100 | 100 to 1000 | FC(F)(F)c1cc(N[C@H]2CCC[C@@H](Nc3nnc4n3CCC4)C2)c2cc(Cl)ccc2n1 [Example 34, (1S,3R)-N^1-(6-Chloro-2-(trifluoromethyl)quinolin-4-yl)-N^3-(6,7-dihydro-5H-pyrrolo[2,1-c][1,2,4]triazol-3-yl)cyclohexane-1,3-diamine]
